Laboratory results reported in PMC9400670, “Establishing the selective phospholipid membrane coordination, permeation and lysis properties for a series of ‘druggable’ supramolecular self-associating antimicrobial amphiphiles” (Chemical Science, 2022).

Tests used:
[1] = Mouse i.v. blood pharmacokinetic study; type: in vivo, female CD-1 mice; conditions: for enterohepatic recirculation: blood concentration-time profile, in words; for clearance: female, CD-1, mouse, 1 mg/kg, read-out: Cl blood; for clearance / Vd: SSA 3 derived based on AUC0–7h; for Cmax: 2% DMSO/98% H2O
Method: Within these studies SSAs 3 and 5 were dosed at 1 mg kg^−1, to female CD-1 mice (n = 9 per SSA) via an intravenous tail vein bolus dose formulation as solutions in 2% DMSO/98% water. Blood taken from the mouse tail vein was extracted by protein precipitation and SSA concentration calculated. The results of these studies are shown in Fig. 12 and Table 4. page 8: For the purpose of fu and SSA-3 PK determination, samples were analysed using a Waters I-Class ultra-high-performance liquid chromatography (UHPLC) system coupled to a Waters Xevo TQ-XS mass spectrometer. Separation of analytes was achieved using an Accucore Vanquish C18+ column (1.5 µm, 50 x 2.1 mm) at a temperature of 40°C and a binary mobile phase gradient at a flow rate of 0.4 mL/min. Initial LC conditions comprised 66% solvent A (0.1% formic acid + 5 mM ammonium acetate in water), 33% solvent B (0.1% formic acid + 5 mM ammonium acetate in methanol); this was ramped to 63% B at 1.8 min and 95% B at 1.9 min, held for 0.5 min and then immediately returned to initial conditions and held for the remaining 0.5 min of the method. Sample analysis was by electrospray ionisation combined with multiple reaction monitoring in negative ion mode. The capillary voltage was 0.8 kV, desolvation gas was 600°C. For the purpose of apparent permeability determination, samples were analysed using a Waters I- Class ultra-high-performance liquid chromatography (UHPLC) system coupled to a Waters Vion mass spectrometer (Waters, Elstree, UK). Separation of analytes was achieved used an Accucore Vanquish C18+ column (1.5 µm, 50 x 2.1 mm) at a temperature of 40°C and a binary mobile phase gradient at a flow rate of 0.4 mL/min. Initial LC conditions for SSA 1-4 comprised 66% solvent A (0.1% formic acid + 5 mM ammonium acetate in water), 33% solvent B (0.1% formic acid + 5 mM ammonium acetate in methanol); this was ramped to 63% B at 1.8 min and 95% B at 1.9 min, held for 0.5 min and then immediately returned to initial conditions and held for the remaining 0.5 min of the method. Initial LC conditions for SSA 5-10 comprised 54% solvent A (0.1% formic acid + 5 mM ammonium acetate in water), 46% solvent B (0.1% formic acid + 5 mM ammonium acetate in methanol); this was ramped to 67% B at 1.8 min and 95% B at 1.9 min, held for 0.5 min and then immediately returned to initial conditions and held for the remaining 0.5 min of the method. Sample analysis was by electrospray ionisation in negative ion mode. The capillary voltage was 2.5 kV, desolvation gas was 600°C. For the purpose of PK determination of SSA 5, samples were analysed using a Waters I-Class ultra- high-performance liquid chromatography (UHPLC) system coupled to a Waters Xevo TQ-XS mass spectrometer. Separation of analytes was achieved using an Accucore Vanquish C18+ column (1.5 µm, 50 x 2.1 mm) at a temperature of 40°C and a binary mobile phase gradient at a flow rate of 0.4 mL/min. Initial LC conditions comprised 54% solvent A (0.1% formic acid + 5 mM ammonium acetate in water), 46% solvent B (0.1% formic acid + 5 mM ammonium acetate in methanol); this was ramped to 67% B at 1.8 min and 95% B at 1.9 min, held for 0.5 min and then immediately returned to initial conditions and held for the remaining 0.5 min of the method. Sample analysis was by electrospray ionisation combined with multiple reaction monitoring in negative ion mode. The capillary voltage was 0.8 kV, desolvation gas was 600°C. Mean blood concentration-time profile: Within these studies SSAs 3 and 5 were dosed at 1 mg/kg, to female CD-1 mice (n=9 per SSA) via an intravenous tail vein bolus dose formulation as solutions in 2 % DMSO/98 % water. Blood taken from the mouse tail vein was extracted by protein precipitation. SSA concentrations were calculated through UPLC-MS/MS techniques, with tolbutamide as the internal standard. The assay met the acceptance criteria with >7 calibration standards within ± 20% of nominal concentration. The lower limit of quantitation was 2 ng/mL for both compounds. […]

[2] = parameters: method as in PMID 29568426; conditions: surface tension; 19 : 1 H2O : EtOH solution at 298 K; unit printed only in Figs S37-S40; cited from earlier work
[3] = blood, iv, i.v. 1 mg kg^−1, female CD-1 mice
[4] = i.v. 1 mg kg^−1, female CD-1 mice
[5] = mouse, blood, iv, i.v. 1 mg kg^−1, female CD-1 mice
[6] = mouse, iv, blood, i.v. 1 mg kg^−1, female CD-1 mice

O=C(NCS(=O)(=O)O)Nc1ccc(C(F)(F)F)cc1 [SSA 3]
Blood concentration of SSA ([1]; 0.5 h post i.v. dosing): 344 nM | Blood concentration of SSA ([1]; 4.0 h post i.v. dosing): 99 nM | enterohepatic recirculation ([1]; i.v. 1 mg kg^−1): undergoing enterohepatic recirculation | clearance [1, 3]: 25 mL/min/kg | Cl blood as % liver blood flow (LBF) [1, 4]: 28 % LBF | Vd [1, 5]: 0.8 L/kg | Cmax [1, 6]: 8090 nM | AUC(0-t) [1, 6]: 2.28 µM·h | Tmax [1, 6]: 4.98 min

O=C(NCS(=O)(=O)O)Nc1ccccc1-c1nc2ccccc2s1 [SSA 5]
Blood concentration of SSA ([1]; 0.5 h post i.v. dosing): 643 nM | Blood concentration of SSA ([1]; 4.0 h post i.v. dosing): 11 nM | enterohepatic recirculation ([1]; i.v. 1 mg kg^−1): did not show any evidence of enterohepatic recirculation | clearance [1, 3]: ~31 mL/min/kg | Cl blood as % liver blood flow (LBF) [1, 4]: 34 % LBF | half-life ([1]; mouse, blood, iv, elimination half-life, i.v. 1 mg kg^−1, female CD-1 mice): 42 min | Vd [1, 5]: 0.9 L/kg | Cmax [1, 6]: 4050 nM | AUC(0-inf) [1, 6]: 1.46 µM·h | AUC(0-t) [1, 6]: 1.45 µM·h | Tmax [1, 6]: 4.98 min | CMC [2]: 9.5 (ref. [38]) mM

Cc1ccc2nc(-c3ccc(NC(=O)NCS(=O)(=O)O)cc3)sc2c1 [SSA 6]
CMC [2]: 0.5 (ref. [38]) mM
